Legend:
Assay in all cases: KINOMEscan Max
Assay type in all cases: binding
[1] = target: ABL1(Q252H)-nonphosphorylated (Homo sapiens, UniProt P00519, Q252H)
In short: (§1)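 In this platform each kinase carries a DNA tag and is offered an immobilized ligand aimed at the active site; test compound competes for binding, and the amount of kinase held on the ligand is measured by qPCR.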

ABL1-nonphosphorylated = ABL1-nonphosphorylated (Homo sapiens, UniProt P00519)
In short: as §1

ALK = target: T1, ALK (Homo sapiens, UniProt Q9UM73)
T1 construct: DNA tag (qPCR label); purchased Ambit Kinomescan (contract screening)
In short: as §1

ASK2 = target: T2, ASK2 (Homo sapiens, UniProt O95382)
T2 construct: DNA tag (qPCR read-out)
In short: as §1

BLK = BLK (Homo sapiens, UniProt P51451)
In short: as §1

CAMKK1 = target: T3, CAMKK1 (Homo sapiens, UniProt Q8N5S9)
T3 construct: DNA tag (qPCR label); purchased Ambit Kinomescan (contract screening)
In short: as §1

CDKL5 = target: T4, CDKL5 (Homo sapiens, UniProt O76039)
T4 construct: DNA tag (qPCR read-out)
In short: as §1

CSK = target: T5, CSK (Homo sapiens, UniProt P41240); conditions: 1 μM
T5 construct: purchased Ambit (KINOMEscan Max panel service)
In short: as §1

DDR2 = target: T6, DDR2 (Homo sapiens, UniProt Q16832)
T6 construct: purchased Ambit (KINOMEscan Max panel service)
In short: as §1

DMPK = target: T7, DMPK (Homo sapiens, UniProt Q09013)
T7 construct: purchased Ambit (KINOMEscan Max panel service)
In short: as §1

EPHA4 = target: T8, EPHA4 (Homo sapiens, UniProt P54764)
T8 construct: purchased Ambit (KINOMEscan Max panel service)
In short: as §1

ERK4 = target: T9, ERK4 (Homo sapiens, UniProt P31152)
T9 construct: purchased Ambit Kinomescan (contract screening)
In short: as §1

ERK8 = ERK8 (Homo sapiens, UniProt Q8TD08)
In short: as §1

FGFR2 = FGFR2 (Homo sapiens, UniProt P21802)
In short: as §1

FGFR3(G697C) = target: T10, FGFR3(G697C) (Homo sapiens, UniProt P22607, G697C)
T10 construct: purchased Ambit Kinomescan (contract panel, KINOMEscan Max)
In short: as §1

FGR = target: T11, FGR (Homo sapiens, UniProt P09769)
T11 construct: purchased Ambit Kinomescan (contract panel, KINOMEscan Max)
In short: as §1

GAK = target: T12, GAK (Homo sapiens, UniProt O14976)
T12 construct: purchased Ambit (KINOMEscan Max service)
In short: as §1

HIPK4 = target: T13, HIPK4 (Homo sapiens, UniProt Q8NE63)
T13 construct: DNA tag (qPCR read-out)
In short: as §1

KIT = KIT (Homo sapiens, UniProt P10721)
In short: as §1

MARK2 = MARK2 (Homo sapiens, UniProt Q7KZI7)
In short: as §1

MARK3 = target: T14, MARK3 (Homo sapiens, UniProt P27448)
T14 construct: purchased Ambit Kinomescan (contract panel)
In short: as §1

MET = target: T15, MET (Homo sapiens, UniProt P08581); conditions: 1 μM
T15 construct: purchased Ambit Kinomescan (contract screening)
In short: as §1

MINK = MINK (Homo sapiens, UniProt Q8N4C8)
In short: as §1

MLK3 = MLK3 (Homo sapiens, UniProt Q16584); conditions: 1 μM
In short: as §1

MYLK = target: T16, MYLK (Homo sapiens, UniProt Q15746)
T16 construct: purchased Ambit (KINOMEscan Max service)
In short: as §1

NDR2 = NDR2 (Homo sapiens, UniProt Q9Y2H1)
In short: as §1

PAK3 = PAK3 (Homo sapiens, UniProt O75914)
In short: as §1

PIK3CA(I800L) = target: T17, PIK3CA(I800L) (Homo sapiens, UniProt P42336, I800L)
T17 construct: DNA tag (qPCR read-out)
In short: as §1

PKN2 = target: T18, PKN2 (Homo sapiens, UniProt Q16513)
T18 construct: purchased Ambit (KINOMEscan Max service)
In short: as §1

PRKG2 = target: T19, PRKG2 (Homo sapiens, UniProt Q13237)
T19 construct: DNA tag (qPCR read-out); purchased Ambit Kinomescan
In short: as §1

[2] = target: T20, RPS6KA5(Kin.Dom.1-N-terminal) (Homo sapiens, UniProt O75582)
T20 construct: RPS6KA5(Kin.Dom.1-N-terminal); DNA tag (qPCR read-out)
In short: as §1

TNK2 = target: T21, TNK2 (Homo sapiens, UniProt Q07912)
T21 construct: purchased Ambit Kinomescan (contract screening service)
In short: as §1

TRKA = target: T22, TRKA (Homo sapiens, UniProt P04629)
T22 construct: purchased Ambit Kinomescan (contract screening service)
In short: as §1

YANK2 = target: T23, YANK2 (Homo sapiens, UniProt Q9NY57)
T23 construct: purchased Ambit Kinomescan (contract screening service)
In short: as §1

T16 sequence (Q15746 whole entry): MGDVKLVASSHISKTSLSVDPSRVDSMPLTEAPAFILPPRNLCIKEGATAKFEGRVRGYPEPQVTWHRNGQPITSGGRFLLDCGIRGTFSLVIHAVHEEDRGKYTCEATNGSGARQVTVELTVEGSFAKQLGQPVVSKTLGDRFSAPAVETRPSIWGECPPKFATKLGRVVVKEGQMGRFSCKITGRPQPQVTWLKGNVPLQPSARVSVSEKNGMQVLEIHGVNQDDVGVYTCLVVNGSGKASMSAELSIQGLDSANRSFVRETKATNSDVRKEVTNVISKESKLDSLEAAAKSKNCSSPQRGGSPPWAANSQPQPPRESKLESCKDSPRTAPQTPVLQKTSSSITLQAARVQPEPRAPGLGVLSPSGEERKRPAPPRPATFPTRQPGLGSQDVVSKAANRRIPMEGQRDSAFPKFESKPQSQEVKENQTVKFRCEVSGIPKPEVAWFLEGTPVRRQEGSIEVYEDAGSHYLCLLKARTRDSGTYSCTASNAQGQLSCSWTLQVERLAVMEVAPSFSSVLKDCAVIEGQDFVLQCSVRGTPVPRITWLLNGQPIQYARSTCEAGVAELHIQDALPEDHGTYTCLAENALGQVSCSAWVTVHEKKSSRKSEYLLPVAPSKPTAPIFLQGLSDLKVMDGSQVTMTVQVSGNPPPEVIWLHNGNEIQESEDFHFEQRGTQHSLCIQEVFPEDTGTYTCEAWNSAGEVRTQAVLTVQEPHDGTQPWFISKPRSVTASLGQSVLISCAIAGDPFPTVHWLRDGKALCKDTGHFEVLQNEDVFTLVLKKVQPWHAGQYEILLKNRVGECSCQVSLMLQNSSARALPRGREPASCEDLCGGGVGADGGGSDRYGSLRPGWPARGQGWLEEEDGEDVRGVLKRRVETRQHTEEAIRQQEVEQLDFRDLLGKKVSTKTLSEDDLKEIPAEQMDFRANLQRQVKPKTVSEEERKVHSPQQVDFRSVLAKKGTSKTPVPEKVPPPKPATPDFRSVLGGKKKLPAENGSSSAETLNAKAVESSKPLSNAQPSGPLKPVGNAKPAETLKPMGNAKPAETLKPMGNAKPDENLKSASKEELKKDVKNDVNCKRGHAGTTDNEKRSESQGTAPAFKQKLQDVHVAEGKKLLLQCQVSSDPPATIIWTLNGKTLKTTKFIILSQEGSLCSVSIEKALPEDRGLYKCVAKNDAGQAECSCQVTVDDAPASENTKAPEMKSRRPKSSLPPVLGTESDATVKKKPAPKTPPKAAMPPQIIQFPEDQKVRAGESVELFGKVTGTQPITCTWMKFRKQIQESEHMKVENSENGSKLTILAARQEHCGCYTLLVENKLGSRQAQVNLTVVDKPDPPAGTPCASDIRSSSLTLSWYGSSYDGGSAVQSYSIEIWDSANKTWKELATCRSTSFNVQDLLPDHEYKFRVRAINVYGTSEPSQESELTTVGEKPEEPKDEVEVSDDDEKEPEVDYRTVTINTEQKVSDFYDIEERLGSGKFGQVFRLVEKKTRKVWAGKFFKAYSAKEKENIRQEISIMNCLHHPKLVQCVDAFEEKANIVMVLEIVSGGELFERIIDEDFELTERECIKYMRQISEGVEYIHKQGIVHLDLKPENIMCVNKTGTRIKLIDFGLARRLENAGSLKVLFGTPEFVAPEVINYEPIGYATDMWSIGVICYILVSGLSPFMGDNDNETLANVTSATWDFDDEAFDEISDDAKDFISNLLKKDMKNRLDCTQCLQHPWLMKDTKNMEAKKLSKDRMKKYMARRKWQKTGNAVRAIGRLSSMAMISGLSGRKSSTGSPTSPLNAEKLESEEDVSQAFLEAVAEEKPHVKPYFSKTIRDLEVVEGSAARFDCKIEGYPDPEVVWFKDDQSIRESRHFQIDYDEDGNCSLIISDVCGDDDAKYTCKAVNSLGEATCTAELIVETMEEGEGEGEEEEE
T9 sequence (P31152 whole entry): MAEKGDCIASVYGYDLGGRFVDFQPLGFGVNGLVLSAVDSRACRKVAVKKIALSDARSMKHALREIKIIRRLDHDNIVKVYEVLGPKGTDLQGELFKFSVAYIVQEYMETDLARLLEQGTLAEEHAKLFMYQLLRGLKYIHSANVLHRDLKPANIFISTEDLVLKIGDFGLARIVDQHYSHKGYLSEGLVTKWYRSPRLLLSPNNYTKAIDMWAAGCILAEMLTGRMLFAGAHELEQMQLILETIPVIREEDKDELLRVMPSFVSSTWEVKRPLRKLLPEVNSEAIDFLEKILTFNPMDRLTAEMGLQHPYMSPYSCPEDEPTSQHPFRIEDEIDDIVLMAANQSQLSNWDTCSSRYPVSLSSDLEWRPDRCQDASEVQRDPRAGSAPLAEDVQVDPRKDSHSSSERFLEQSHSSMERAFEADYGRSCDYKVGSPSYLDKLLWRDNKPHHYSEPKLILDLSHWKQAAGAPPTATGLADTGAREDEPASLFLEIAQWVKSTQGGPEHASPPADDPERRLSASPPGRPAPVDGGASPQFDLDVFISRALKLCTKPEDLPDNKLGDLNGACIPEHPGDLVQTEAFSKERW
T13 sequence (Q8NE63 whole entry): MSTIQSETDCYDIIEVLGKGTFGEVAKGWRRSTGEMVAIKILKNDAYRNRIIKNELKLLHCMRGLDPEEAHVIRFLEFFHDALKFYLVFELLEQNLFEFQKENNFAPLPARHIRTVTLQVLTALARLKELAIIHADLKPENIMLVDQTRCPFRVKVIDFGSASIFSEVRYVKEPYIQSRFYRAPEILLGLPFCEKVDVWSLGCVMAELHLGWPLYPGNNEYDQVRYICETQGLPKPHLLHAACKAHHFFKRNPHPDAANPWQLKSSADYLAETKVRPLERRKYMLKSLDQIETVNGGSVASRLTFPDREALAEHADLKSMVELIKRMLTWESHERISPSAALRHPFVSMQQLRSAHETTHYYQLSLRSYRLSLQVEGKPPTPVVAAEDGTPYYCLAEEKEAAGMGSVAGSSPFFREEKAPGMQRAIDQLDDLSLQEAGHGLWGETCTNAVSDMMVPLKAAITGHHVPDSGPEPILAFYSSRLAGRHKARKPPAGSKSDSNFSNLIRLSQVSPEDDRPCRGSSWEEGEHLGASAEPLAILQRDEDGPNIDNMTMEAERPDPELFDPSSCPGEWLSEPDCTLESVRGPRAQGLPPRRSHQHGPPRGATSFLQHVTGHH
Chain of NDR2 (Q9Y2H1 whole entry): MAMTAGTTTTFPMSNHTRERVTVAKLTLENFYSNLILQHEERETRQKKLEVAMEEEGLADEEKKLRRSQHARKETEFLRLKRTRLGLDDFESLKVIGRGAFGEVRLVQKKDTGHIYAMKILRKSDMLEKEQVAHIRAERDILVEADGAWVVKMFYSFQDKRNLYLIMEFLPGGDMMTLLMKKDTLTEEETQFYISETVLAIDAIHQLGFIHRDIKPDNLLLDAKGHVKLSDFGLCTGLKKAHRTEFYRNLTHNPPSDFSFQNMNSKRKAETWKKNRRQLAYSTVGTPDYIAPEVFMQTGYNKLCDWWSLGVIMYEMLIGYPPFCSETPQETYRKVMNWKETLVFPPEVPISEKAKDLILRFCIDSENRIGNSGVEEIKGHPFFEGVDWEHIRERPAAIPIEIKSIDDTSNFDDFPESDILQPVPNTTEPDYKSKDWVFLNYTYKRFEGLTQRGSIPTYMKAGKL
T5 sequence (P41240 whole entry): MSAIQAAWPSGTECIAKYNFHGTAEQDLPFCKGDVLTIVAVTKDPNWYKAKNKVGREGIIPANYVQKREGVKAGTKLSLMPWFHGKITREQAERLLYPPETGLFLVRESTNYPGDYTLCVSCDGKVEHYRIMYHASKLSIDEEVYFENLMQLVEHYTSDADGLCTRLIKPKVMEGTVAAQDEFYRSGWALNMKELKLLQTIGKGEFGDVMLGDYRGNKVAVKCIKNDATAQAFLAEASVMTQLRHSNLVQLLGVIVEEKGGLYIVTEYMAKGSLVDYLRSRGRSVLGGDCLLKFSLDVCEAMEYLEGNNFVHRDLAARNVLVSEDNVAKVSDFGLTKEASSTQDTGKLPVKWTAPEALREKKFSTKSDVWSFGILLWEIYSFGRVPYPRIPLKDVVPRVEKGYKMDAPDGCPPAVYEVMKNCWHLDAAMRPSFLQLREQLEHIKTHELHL
T8 sequence (P54764 20-986): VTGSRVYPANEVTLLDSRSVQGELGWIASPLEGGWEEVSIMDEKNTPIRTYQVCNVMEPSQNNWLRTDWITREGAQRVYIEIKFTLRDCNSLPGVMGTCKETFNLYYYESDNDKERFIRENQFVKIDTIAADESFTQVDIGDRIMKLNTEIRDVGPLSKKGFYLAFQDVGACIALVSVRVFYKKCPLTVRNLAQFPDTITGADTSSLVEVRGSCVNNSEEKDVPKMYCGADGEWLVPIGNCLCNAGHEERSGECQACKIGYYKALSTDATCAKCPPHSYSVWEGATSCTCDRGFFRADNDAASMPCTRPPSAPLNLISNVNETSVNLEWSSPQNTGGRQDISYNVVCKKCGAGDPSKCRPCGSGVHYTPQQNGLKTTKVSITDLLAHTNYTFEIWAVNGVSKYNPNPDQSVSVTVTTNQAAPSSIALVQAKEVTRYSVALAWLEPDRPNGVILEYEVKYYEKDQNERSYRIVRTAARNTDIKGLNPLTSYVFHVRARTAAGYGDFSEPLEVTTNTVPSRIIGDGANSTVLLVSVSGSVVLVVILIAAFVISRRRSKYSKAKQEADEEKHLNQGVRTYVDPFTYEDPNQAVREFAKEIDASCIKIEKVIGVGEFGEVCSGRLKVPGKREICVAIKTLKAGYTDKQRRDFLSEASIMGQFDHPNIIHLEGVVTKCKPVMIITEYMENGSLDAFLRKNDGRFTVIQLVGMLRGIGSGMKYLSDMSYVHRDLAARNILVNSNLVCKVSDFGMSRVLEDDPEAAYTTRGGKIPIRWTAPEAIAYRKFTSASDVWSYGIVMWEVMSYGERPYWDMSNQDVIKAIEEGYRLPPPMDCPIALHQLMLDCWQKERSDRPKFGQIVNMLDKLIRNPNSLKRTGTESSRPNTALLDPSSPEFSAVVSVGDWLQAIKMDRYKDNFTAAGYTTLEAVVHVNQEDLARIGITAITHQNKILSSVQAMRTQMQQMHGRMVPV

For `NCCCNc1nc2c(Br)c(Br)c(Br)c(Br)c2[nH]1` [Compound 11, N-(3-aminopropyl)-4,5,6,7-tetrabromo-1H-benzo[d]imidazol-2-amine], the remaining binding at 1 µM [1] was 95%, the remaining binding at 1 µM (ABL1-nonphosphorylated) was 100% and the remaining binding at 1 µM (ALK) was 100%. The remaining binding at 1 µM (ASK2) was 90%, the remaining binding at 1 µM (BLK) was 96% and the remaining binding at 1 µM (CAMKK1) was 100%. For the same compound, the remaining binding at 1 µM (CDKL5) was 25%, the “% binding” value (CSK) was 100% and the remaining binding at 1 µM (DDR2) was 100%. It also gave a remaining binding at 1 µM (DMPK) of 100%, a remaining binding at 1 µM (EPHA4) of 100% and a remaining binding at 1 µM (ERK4) of 98%. It also gave a remaining binding at 1 µM (ERK8) of 72%, a remaining binding at 1 µM (FGFR2) of 77% and a remaining binding at 1 µM (FGFR3(G697C)) of 100%. It also gave a remaining binding at 1 µM (FGR) of 100%, a remaining binding at 1 µM (GAK) of 81% and a remaining binding at 1 µM (HIPK4) of 53%. For the same compound, the remaining binding at 1 µM (KIT) was 96%, the remaining binding at 1 µM (MARK2) was 94% and the remaining binding at 1 µM (MARK3) was 100%. The “% binding” value (MET) was 97%, the remaining binding at 1 µM (MINK) was 100% and the “% binding” value (MLK3) was 95%. It also gave a remaining binding at 1 µM (MYLK) of 58%, a remaining binding at 1 µM (NDR2) of 100% and a remaining binding at 1 µM (PAK3) of 91%. For the same compound, the remaining binding at 1 µM (PIK3CA(I800L)) was 100%, the remaining binding at 1 µM (PKN2) was 80% and the remaining binding at 1 µM (PRKG2) was 7%. For the same compound, the remaining binding at 1 µM [2] was 100%, the remaining binding at 1 µM (TNK2) was 100% and the remaining binding at 1 µM (TRKA) was 100%. The remaining binding at 1 µM (YANK2) was 100%.
